# Assay results: article PMC4666608, “Metabolic Profiling of Chicken Embryos Exposed to Perfluorooctanoic Acid (PFOA) and Agonists to Peroxisome Proliferator-Activated Receptors” (PLoS ONE, 2015)
# Marks after values point to notes of the source that are not given here.
# Test system: chicken embryos
# Experiment: Metabolic profiling of blood plasma (GC-MS, LC-MS, OPLS-DA)
# Format: in vivo, Gallus gallus domesticus
# Conditions: LC
# Method: Controls were injected with 20 μL vehicle only (DMSO).
# Plasma was collected and stored at -70°C.
# Metabolites in allantoic fluid and blood plasma were analyzed using gas chromatography-mass spectrometry (GC-MS) and liquid chromatography-mass spectrometry (LC-MS) as described in S1 Methods. Prior to GC-MS and LC-MS analysis, allantoic fluid (100 μL) and blood plasma (50 μL) were extracted. To each sample, 900 μL (allantoic fluid) or 450 μL (blood plasma) of extraction buffer (90/10 v/v methanol:water) including all internal standards were added. Standards for GC-MS were proline, succinic acid, glutamic acid, salicylic acid, alpha-ketoglutarate, putrescine, myristic acid, hexadecanoic acid, cholesterol, and sucrose. Standards for LC-MS were Val-Tyr-Val, Leu-enkephalin, sulfadimethoxine and reserpine. Samples were homogenized by shaking in a bead mill at a frequency of 30 Hz for 3 minutes and proteins were precipitated at +4°C on ice. The samples were centrifuged at +4°C, 14000 rpm, for 10 min. Then, 200 μL supernatant was transferred to a GC microvial and 200 μL was transferred to an LC microvial, and solvents were evaporated. Samples from the four replicate experiments were analyzed using in chronological order and within each replicate experiment the run order of the individual samples was randomized.
# Multivariate statistical analyses of metabolite profiles were performed using the software package SIMCA-P version 13.0 (Umetrics, Umeå, Sweden). Data was centered and scaled to variance 1 (UV scaling) prior to modelling. To reduce unintended systematic variation caused by sample processing and instrument drift, GC-MS and LC-MS metabolite amounts (expressed as the area under the chromatographic peak) were normalized by Orthogonal Partial Least Squares analysis (O2PLS) prior to multivariate data analysis. O2PLS finds common (predictive) and unique (orthogonal) variation in two data matrices. If applied to find the common variation between the data matrix containing the measured metabolite concentrations and a matrix containing only the internal standards, the only common (predictive) variation expected is due to the unintended systematic variation. By deleting the contribution of the predictive latent variables, that variation can be removed from the data. Models obtained after this normalization contain in general less latent variables, and this simplification helps when deciding on the number of latent variables to be used. Following normalization, GC-MS and LC-MS data were analyzed together. Initially, a global Principal Component Analysis (PCA) was performed to get an overview of groups and trends and to identify outliers. Projections to latent structures by means of Orthogonal Partial Least Squares Discriminant Analysis (OPLS-DA) was used to model the relationship between the X-matrix (metabolite concentrations) and the Y matrix (class, i.e. exposure group or sex), and to find x-variables that were related to class belonging. OPLS-DA is a supervised prediction and regression method that rotates the projection plane to find the maximum covariance between the data and the class assignment. All groups were first analyzed together in a 5-class OPLS-DA and then each exposure group was analyzed against the control group in a 2-class OPLS-DA. Sex differences were analyzed both using the whole data set and in each group separately using 2-class OPLS-DA, with females and males as the two classes. Only variables with 80% or more nonzero values were included in the statistical models. […] The validity of each model was also checked using CV-ANOVA (ANOVA of the cross-validated residuals). A significance level of p < 0.05 was used. For each model, R ^2 X, R ^2 Y and Q ^2 values were calculated, where R ^2 X is a measure of the fraction of x variation modeled in the extracted latent variables, R ^2 Y is a measure of the fraction of y variation modeled and Q ^2 is an estimate of the predictive ability of the model and is calculated by cross-validation. […]
structure (smiles),measurement,setting,value
"O=C(O)C(F)(F)C(F)(F)C(F)(F)C(F)(F)C(F)(F)C(F)(F)C(F)(F)F [PFOA, perfluorooctanoic acid]","Mean concentration relative to control, feature 634.2403@1.9467853",PFOA 50,1
same,"Mean concentration relative to control, feature 644.1614@0.7647065",PFOA 50,1.1
same,"Mean concentration relative to control, feature 659.5483@11.4915495",PFOA 50,1.0
same,"Mean concentration relative to control, feature 698.2598@1.3599721",PFOA 50,1.1
same,"Mean concentration relative to control, feature 700.5514@10.765638",PFOA 50,1.1
same,"Mean concentration relative to control, feature 755.5465@10.73882",PFOA 50,1
same,"Mean concentration relative to control, feature 827.5078@8.831237",PFOA 50,1.2
same,"Mean concentration relative to control, feature 875.4661@10.5661745",PFOA 50,1.0
same,"Mean concentration relative to control, feature 1262.4865@1.947075",PFOA 50,1
same,"Mean concentration relative to control, feature 1316.4163@1.9465046",PFOA 50,1.1*
same,"Mean concentration relative to control, feature 1591.051@5.0189176",PFOA 50,1
same,"Mean concentration relative to control, feature 1591.388@5.0202384",PFOA 50,1
same,"Mean concentration relative to control, feature 1591.7203@5.018071",PFOA 50,1
same,"Mean concentration relative to control, feature 118.0284@2.480333 (C4H6O4)",PFOA 250,1
same,"Mean concentration relative to control, feature 122.0486@0.675613",PFOA 250,1
same,"Mean concentration relative to control, feature 126.0428@1.2278157 (Thymine)",PFOA 250,1.1*
same,"Mean concentration relative to control, feature 146.0362@0.7772238",PFOA 250,1
same,"Mean concentration relative to control, feature 159.0686@1.1608156",PFOA 250,1.4
same,"Mean concentration relative to control, feature 164.0449@0.7694838",PFOA 250,1
same,"Mean concentration relative to control, feature 202.1024@5.0303197 (C8H14N2O4)",PFOA 250,1.1
same,"Mean concentration relative to control, feature 203.1162@0.5130696",PFOA 250,0.9
same,"Mean concentration relative to control, feature 213.2458@7.4887733",PFOA 250,1.2**
same,"Mean concentration relative to control, feature 215.047@1.6260729 (C5H14NO6P)",PFOA 250,1.0
same,"Mean concentration relative to control, feature 226.0721@1.9460537",PFOA 250,1
same,"Mean concentration relative to control, feature 231.0174@1.6241412",PFOA 250,0.9
same,"Mean concentration relative to control, feature 233.1265@2.535991",PFOA 250,1.1
same,"Mean concentration relative to control, feature 250.1317@2.1334834",PFOA 250,0.9
same,"Mean concentration relative to control, feature 260.0508@0.69984084",PFOA 250,0.7*
same,"Mean concentration relative to control, feature 276.0173@1.6283482",PFOA 250,0.9
same,"Mean concentration relative to control, feature 278.0939@1.3354088",PFOA 250,1
same,"Mean concentration relative to control, feature 293.0903@1.5739433",PFOA 250,1
same,"Mean concentration relative to control, feature 307.2147@7.5065937 (C18H29NO3)",PFOA 250,2.0***
same,"Mean concentration relative to control, feature 310.178@7.5343466",PFOA 250,1.2**
same,"Mean concentration relative to control, feature 339.3861@9.528681",PFOA 250,1.4*
same,"Mean concentration relative to control, feature 342.2883@7.526812",PFOA 250,0.7***
same,"Mean concentration relative to control, feature 348.0675@1.5761927",PFOA 250,1
same,"Mean concentration relative to control, feature 355.9454@0.68034226",PFOA 250,1
same,"Mean concentration relative to control, feature 362.1467@0.8461036",PFOA 250,1.0
same,"Mean concentration relative to control, feature 366.1431@1.4228548",PFOA 250,1
same,"Mean concentration relative to control, feature 373.296@9.044806",PFOA 250,1.1
same,"Mean concentration relative to control, feature 375.3108@8.995564",PFOA 250,1
same,"Mean concentration relative to control, feature 389.2686@9.046645",PFOA 250,1
same,"Mean concentration relative to control, feature 407.0999@1.585909",PFOA 250,1
same,"Mean concentration relative to control, feature 412.135@2.4779084 (C17H24N4O6S)",PFOA 250,1
same,"Mean concentration relative to control, feature 444.3607@10.33052",PFOA 250,0.7*
same,"Mean concentration relative to control, feature 471.9819@0.685074",PFOA 250,1.1
same,"Mean concentration relative to control, feature 489.1508@8.562614",PFOA 250,0.8
same,"Mean concentration relative to control, feature 509.1184@2.4798179",PFOA 250,1
same,"Mean concentration relative to control, feature 525.2855@8.361063",PFOA 250,1
same,"Mean concentration relative to control, feature 545.2492@8.463657",PFOA 250,1.1
same,"Mean concentration relative to control, feature 558.4095@9.459733",PFOA 250,1
same,"Mean concentration relative to control, feature 565.1902@0.7699907",PFOA 250,1.0
same,"Mean concentration relative to control, feature 577.2747@9.25652",PFOA 250,1.1
same,"Mean concentration relative to control, feature 581.1643@0.77029324",PFOA 250,1.1
same,"Mean concentration relative to control, feature 634.2403@1.9467853",PFOA 250,1
same,"Mean concentration relative to control, feature 644.1614@0.7647065",PFOA 250,1.1*
same,"Mean concentration relative to control, feature 659.5483@11.4915495",PFOA 250,0.9
same,"Mean concentration relative to control, feature 698.2598@1.3599721",PFOA 250,1.1
same,"Mean concentration relative to control, feature 700.5514@10.765638",PFOA 250,1.1
same,"Mean concentration relative to control, feature 755.5465@10.73882",PFOA 250,1.2
same,"Mean concentration relative to control, feature 827.5078@8.831237",PFOA 250,1.2
same,"Mean concentration relative to control, feature 875.4661@10.5661745",PFOA 250,1.0
same,"Mean concentration relative to control, feature 1262.4865@1.947075",PFOA 250,1
same,"Mean concentration relative to control, feature 1316.4163@1.9465046",PFOA 250,1.0
same,"Mean concentration relative to control, feature 1591.051@5.0189176",PFOA 250,1
same,"Mean concentration relative to control, feature 1591.388@5.0202384",PFOA 250,0.9
same,"Mean concentration relative to control, feature 1591.7203@5.018071",PFOA 250,0.9
